The values below are quoted from earlier work in EP2837390A1, “Combined Pharmaceutical Preparation for Use in Treating Neuromuscular Disorders” (Universitäts-Kinderspital beider Basel, priority 2013, dated 2015).

The subject of this series is mdx mice model. As to conditions: long term supplementation for 17-months.

Turning to `N=C(N)NCCC[C@H](N)C(=O)O` [L-arginine], the muscle fibrosis result is “increased”, the muscle function entry is on record as “worsened” and the skeletal deformities entry was “increased”.
